Experimental data: patent US5726156A, “Cytokine regulatory agents and methods of use in pathologies and conditions associated with altered cytokine levels” (Trega Biosciences, Inc., priority 1995, dated 1998)

Legend:
[1] = system: TNF-α; experiment: Reduction of LPS-induced TNF levels in mice (IP dosing); assay type: in vivo; settings: 30 μg/mouse IP, one min before LPS 5 mg/kg IP; vs untreated control mice
Experimental: Balb/c female mice weighing approximately 20 g were placed into two groups, a control group and a treated group. Five mg/kg of LPS in 0.9% saline was administered by intraperitoneal (IP) injection into the control mice. Mice in the treated group were first injected IP with 30 μg EX-2 or 150 μg EX-3 in saline, then, one min after EX-2 or EX-3 was administered, the mice received LPS as described for the control group.
Blood samples were collected from the orbital sinus of treated and control mice at various times up to four hr after LPS was administered. The plasma was separated by centrifugation at 3000×g for 5 min, then diluted with four volumes of 1× phosphate buffer saline (pH 7.4) containing 1% bovine serum albumin. A 100 μl sample of serum was assayed by ELISA for TNF-α (Genzyme; Cambridge Mass.).
The mean (+/- SEM) TNF-α level in six mice from each group was determined and the percent reduction in TNF levels was calculated.

[2] = system: arachidonic acid-induced ear swelling; experiment: Arachidonic acid-induced ear swelling; assay type: in vivo, mice; settings: 100 μg/mouse IP 30 min prior to AA; 60 min after AA
Experimental: Experiments were performed using female Balb/c mice weighing 18-23 grams. Saline or 100 μg EX-2 or EX-3 was administered IP, 30 min prior to topical application of arachidonic acid (AA). A 10 μl pipet was used to apply 10 μl AA solution (100 mg/ml ethanol; Calbiochem-Novabiochem; San Diego Calif.) to the inner and outer surfaces of the right ear of each mouse. Ten μl ethanol, alone, was applied to the inner and outer surface of the left ear of each mouse. Ear thickness was measured with a hand-held spring loaded caliper immediately before and 60 min after AA application. Increase in ear thickness was calculated by subtracting the change observed in the control ear from the change observed in AA-treated ear. The value for each group (saline and control) is the average of the swelling observed in the individual mice in each group. The percent reduction of swelling is based on the swelling observed in the saline control group.

[3] = system: morphine-induced respiratory depression; experiment: Morphine-induced respiratory depression; assay type: in vivo, rabbits; settings: 10 + 20 + 20 μg/kg/rabbit iv; end of experiment (80 min)
Experimental: Male Shelton rabbits (3-4 kg) were restrained and fitted around the thorax, just behind the front limbs, with a respiration transducer (Model F-RCT; Grass Instruments; Quincy Ma). The transducer was connected to a grass polygraph via an EKG cable. An intravenous line was established for drug administration by cannulating the marginal ear vein using a 25 G butterfly needle.
Rabbit breathing was allowed to stabilize, then morphine sulfate (2 mg/kg in 0.5 ml saline) was administered by intravenous (iv) injection and respiratory rate and depth were monitored for 10 min. A second dose of morphine was administered, then, after 10 min, EX-2 or EX-3 (10 μg/kg in 0.5 ml saline) was administered, iv, and rabbits were monitored for 20 min. Two additional doses of EX-2 or EX-3 (20 μg/kg in 1.0 ml saline) were administered at 20 min intervals, i.e., 40 min and 60 min after the first morphine injection.
Results were calculated as the percent change from baseline values and are expressed as the difference of the mean value of the treated group minus the mean value of the control group at the end of the experiment (80 min).

[4] = system: kidney (cisplatin nephrotoxicity); experiment: Cisplatin (CDDP) nephrotoxicity, renal function; assay type: in vivo, rats
Experimental: Male Sprague-Dawley were used to determine the effect of EX-2 on renal function after cisplatin (CDDP) administration. All rats were administered CDDP (4 mg/kg IP) and divided in 3 treatment groups (n=6/group). The groups were as follows: (1) Administration with vehicle and sterile PBS 3×/day; (2) Administration of EX-2 at a dose of 5 μg/kg, 3×/day; and (3) same as group 2 except the dose of EX-2 was 50 μg/kg, 3×/day. An infusion of ^3 H-inulin (0.6 μCi/ml in PBS) (2 ml/hr) was initiated at the end of the surgical preparation period. The continuous infusion was started 60 min prior to the renal function measurements and maintained to the end of the study. Glomerular filtration was assessed by inulin clearance techniques in two 30 min periods and renal blood flow (RBF) and renal plasma flow (RPF) were measured by inulin extraction techniques (arterial vs. renal vein inulin concentration) from left kidney renal vein blood sampled at the end of the second GFR measurement period. Urinary output was also monitored to determine both urine flow and fractional excretion of water. Urinary electrolyte (Na^+ and K^+) concentrations were analyzed by flame photometry (Model 51 Ca, Bacharch, inc.; Pittsburgh, Pa.) and urinary protein concentrations were determined. At the end of the measurement periods, the kidneys were removed for histological analysis.

[5] = system: glomerulonephritis; experiment: Glomerulonephritis (nephrotoxic serum), albuminuria; assay type: in vivo, rats; settings: 100 μg/kg per injection, 3 times per day
Experimental: Male Sprague-Dawley rats (weight 194-248 g) were immunized by subcutaneous injection of 1 mg normal rabbit IgG (Sigma Chemical Co.) in Freund's complete adjuvant (Sigma Chemical Co.). EX-2 was administered 3 times per day (100 μg/kg per injection) throughout the duration of the experiment. Seven days later, the rats were injected with 1.5 ml of nephrotoxic serum iv via dorsal penile vein. Urine, plasma, and serum were collected before injection of nephrotoxic serum at 4, 6, 24, 48, and 96 hr thereafter. […] Albuminuria was quantified by immunoelectrophoresis.

[6] = system: IL-10; experiment: Increasing levels of IL-10 in human plasma; assay type: in vivo; settings: for increase of plasma IL-10: healthy male volunteers
Experimental: EX-2 was administered by intravenous infusion to eight healthy male volunteers in doses of either 200 or 500 ug/kg. Plasma IL-10 levels increased in two of four volunteers after administration at 200 ug/kg EX-2 (FIG. 3a) and in four of four volunteers after administration of 500 ug/kg EX-2 (FIG. 3b).

[7] = CDDP 4 mg/kg IP + 5 μg/kg EX-2 3×/day
[8] = CDDP 4 mg/kg IP + 50 μg/kg EX-2 3×/day

Ac-Nle-Gln-His-(D)Phe-Arg-(D)Trp-Gly-NH2 [EX-2]
Reduction in TNF levels [1]: 50%
Reduction in arachidonic acid-induced Ear Swelling [2]: 72%
Reduction in Morphine-induced Respiratory Depression [3]: 50%
GFR [4, 7]: 0.8 ± 0.2
RBF [4, 7]: 12.1 ± 2.0
RPF [4, 7]: 6.5 ± 1.0 ml/mm
GFR [4, 8]: 1.6 ± 0.4
RBF [4, 8]: 16.8 ± 2.2
RPF [4, 8]: 8.8 ± 1.1 ml/mm
% Reduction, Glomerulonephritis, Urine Albumin (mg/day) [5]: 62%
volunteers in whom plasma IL-10 levels increased ([6]; 200 ug/kg intravenous infusion): two of four
increase of plasma IL-10 ([6]; 200 ug/kg intravenous infusion): 85%
volunteers in whom plasma IL-10 levels increased ([6]; 500 ug/kg intravenous infusion): four of four
increase of plasma IL-10 ([6]; 500 ug/kg intravenous infusion): 230%
